US11246849B2, “Nerve growth promoter” (LAIMU CORPORATION, priority 2017, dated 2022)

Tested on: PCl2 cells
Experiment: Bt2cAMP-inductive neurite formation effect
Type: cell-based, rat
Conditions: 0.5 mM Bt2cAMP; RPMI-1640; 0.2 μM or 2 μM; FIG. 4
Experimental: (§1) Using rat adrenal medullary pheochromocytoma-derived PCl2 cells obtained from Riken BioResource Research Center as a model, the L-valine solutions prepared in Preparation Examples were evaluated for the neurite formation effect and the neural differential promoting effect thereof. When acted on by Bt2cAMP (dibutyryladenosine 3′,5′-cyclic monophosphate) or NGF, the PCl2 cells are known to stop growing and to grow nerve fibers and elongate sympathetic ganglionic neuron-like dendrites. Here, L-valine was introduced into the Bt2cAMP-inductive neurite formation process and the NGF-inductive neural differentiation process to thereby evaluate the neurite formation effect and the neural differentiation promoting effect thereof, and the effect of L-valine was compared with that of L-leucine and L-isolencine.
(§2) Here, the PCl2 cells were cultivated using an RPMI-1640 medium containing 10% equine serum (inactivated), 5% bovine fetal serum (inactivated), 100 U/mL penicillin G and 100 μg/mL streptomycin, in a 5% CO2 vapor phase in an incubator at 37° C., and the resultant cells in an about 70% confluent state were peeled with a basal medium and used in the experiment. In the following, the medium having the same composition as the medium used in cultivation of the PCl2 cells is referred to as “basal medium”.
Here, for the judgement of positivity or negativity, 300 to 400 cells/well were observed.
In the same manner as in the above-mentioned preliminary experiment, a suspension of PCl2 cells was sown in a collagen-coated 96-well plate at 4.0×10^3 cells/90 μL/well, and cultivated therein in a 5% CO2 vapor phase at 37° C. for 24 hours. After the cultivation, Dulbecco PBS(−) containing 10 mM Bt2cAMP, and the L-valine solution prepared in Preparation Example 1 or Preparation Example 2 were added to each well each in an amount of 5 μL/well, and the cells were further cultivated for 24 hours. At this time, the Bt2cAMP concentration in the medium in each well was 0.5 mM.
Next, co-addition of valine and methionine to a medium was checked for the effect. In the same manner as above, Bt2cAMP was added to an RPMI-1640 medium where PCl2 cells were sown and cultivated in each well, and further, an L-valine solution, an L-methionine solution, or a solution of a mixture prepared by mixing L-valine and L-methionine at 1/1 was added thereto and the cells were further cultivated to check for the neurite formation rate. Regarding the concentration of the amino acid added to the RPMI-1640 medium, the concentration in the system using the L-valine solution or the L-methionine solution was 0.2 μM, and the concentration of L-valine and L-methionine in the system using the L-valine and L-methionine mixture solution was 0.1 μM each, totaling 0.2 μM.

Structure (SMILES)	neurite formation promoting effect compared with L-valine
CC(C)[C@@H](N)C(=O)O [D-valine]	same neurite formation promoting effect like that of L-valine
CC(=O)N[C@H](C(=O)O)C(C)C [N-acetyl-L-valine]	same neurite formation promoting effect like that of L-valine

Same assay, conditions: 0.5 mM Bt2cAMP; RPMI-1640; amino acid concentration increased up to 200 μM

Structure (SMILES)	change in the neurite formation ratio
C[C@H](N)C(=O)O [alanine]	could not provide any significant change
N=C(N)NCCC[C@H](N)C(=O)O [arginine]	could not provide any significant change
NC(=O)C[C@H](N)C(=O)O [asparagine]	could not provide any significant change
N[C@@H](CC(=O)O)C(=O)O [aspartic acid]	could not provide any significant change
N[C@@H](CS)C(=O)O [cysteine]	could not provide any significant change
N[C@@H](CCC(=O)O)C(=O)O [glutamic acid]	could not provide any significant change
NC(=O)CC[C@H](N)C(=O)O [glutamine]	could not provide any significant change
NCC(=O)O [glycine]	could not provide any significant change
N[C@@H](Cc1c[nH]cn1)C(=O)O [histidine]	could not provide any significant change
NCCCC[C@H](N)C(=O)O [lysine]	could not provide any significant change
N[C@@H](Cc1ccccc1)C(=O)O [phenylalanine]	could not provide any significant change
O=C(O)[C@@H]1CCCN1 [proline]	could not provide any significant change
N[C@@H](CO)C(=O)O [serine]	could not provide any significant change
C[C@@H](O)[C@H](N)C(=O)O [threonine]	could not provide any significant change
N[C@@H](Cc1c[nH]c2ccccc12)C(=O)O [tryptophan]	could not provide any significant change
N[C@@H](Cc1ccc(O)cc1)C(=O)O [tyrosine]	could not provide any significant change

Same assay, conditions: 0.5 mM Bt2cAMP; RPMI-1640; high concentration of 20 μM; FIG. 5

Structure (SMILES)	neurite formation promoting effect
CSCC[C@@H](N)C(=O)O [D-methionine]	exhibited the neurite formation promoting effect
CSCC[C@H](N)C(=O)O [L-methionine]	exhibited the neurite formation promoting effect

Same assay, conditions: 0.5 mM Bt2cAMP; amino acid 0.02 or 0.2 μg/mL in RPMI-1640 (FIG. 2), 0.02 μg/mL in Nutrient Mixture F-12 Ham (FIG. 3); 24 hours

Structure (SMILES)	neurite formation promoting effect
CC[C@H](C)[C@H](N)C(=O)O [L-isoleucine]	could not be recognized
CC(C)C[C@H](N)C(=O)O [L-leucine]	could not be recognized
CC(C)[C@H](N)C(=O)O [L-valine]	significantly promoted

Tested on: PCl2 cells
Experiment: NGF-inductive neural differentiation, neurofilament immunofluorescent staining
Type: cell-based, rat
Conditions: NGF plus L-valine (sample 1) versus NGF only (comparative sample 2); 48 hours; FIG. 7
Experimental: as §1, §2
A neurofilament was used as a neural differentiation marker. […]

Structure (SMILES)	neurofilaments (bright spots in FITC fluorescently-stained image) versus NGF alone
CC(C)[C@H](N)C(=O)O [L-valine]	larger number of bright spots

Tested on: PCl2 cells
Experiment: Bt2cAMP concentration dependency of neurite formation rate (preliminary experiment)
Type: cell-based, rat
Conditions: Bt2cAMP concentration in the medium 1.0 mM; 24 hours; FIG. 1
Experimental: Using rat adrenal medullary pheochromocytoma-derived PCl2 cells obtained from Riken BioResource Research Center as a model, the L-valine solutions prepared in Preparation Examples were evaluated for the neurite formation effect and the neural differential promoting effect thereof. When acted on by Bt2cAMP (dibutyryladenosine 3′,5′-cyclic monophosphate) or NGF, the PCl2 cells are known to stop growing and to grow nerve fibers and elongate sympathetic ganglionic neuron-like dendrites. Here, L-valine was introduced into the Bt2cAMP-inductive neurite formation process and the NGF-inductive neural differentiation process to thereby evaluate the neurite formation effect and the neural differentiation promoting effect thereof, and the effect of L-valine was compared with that of L-leucine and L-isolencine. Here, the PCl2 cells were cultivated using an RPMI-1640 medium containing 10% equine serum (inactivated), 5% bovine fetal serum (inactivated), 100 U/mL penicillin G and 100 μg/mL streptomycin, in a 5% CO2 vapor phase in an incubator at 37° C., and the resultant cells in an about 70% confluent state were peeled with a basal medium and used in the experiment. […] In FIG. 1, the neurite formation rate is expressed as ±SD, and SD is a standard deviation of the three experiments carried out in the same manner. […]

Structure (SMILES)	neurite formation rate (maximum)
CCCC(=O)Nc1ncnc2c1ncn2[C@@H]1O[C@@H]2COP(=O)(O)O[C@H]2[C@H]1OC(=O)CCC [Bt2cAMP, dibutyryladenosine 3′,5′-cyclic monophosphate]	19.5%
